In the PolyMetriX glass transition set:
± gives the standard deviation of the reports.

Row | glass transition temperature | SMILES
1 | 116.00 °C | *c1cccc(OCCCCCCCCCCCCOc2cccc(N3C(=O)c4ccc(-c5ccc6c(c5)C(=O)N(*)C6=O)cc4C3=O)c2)c1 (repeat unit)
2 | 323.8 ± 24 °C | *c1ccc(-c2ccc(N3C(=O)c4ccc(-c5ccc6c(c5)C(=O)N(*)C6=O)cc4C3=O)cc2C(F)(F)F)c(C(F)(F)F)c1 (repeat unit)
3 | 242.00 °C | *CC(=O)Nc1ccc(Oc2ccc(Oc3ccc(NC(=O)CN4C(=O)c5ccc(C(c6ccc7c(c6)C(=O)N(*)C7=O)(C(F)(F)F)C(F)(F)F)cc5C4=O)cc3)cc2)cc1 (repeat unit)
4 | 290.00 °C | *c1ccc(Oc2ccc(S(=O)(=O)c3ccc(Oc4ccc(-c5c6c(c(*)c7ccccc57)C(=O)N(c5ccc(C(F)(F)F)cc5)C6=O)cc4)cc3)cc2)cc1 (repeat unit)
5 | 260.00 °C | *c1ccc2c(c1)C(=O)N(c1cccc(Oc3ccc(N4C(=O)c5ccc(C(*)(C(F)(F)F)C(F)(F)F)cc5C4=O)cc3)c1)C2=O (repeat unit)
6 | 367.00 °C | *C(=O)Nc1ccc(S(=O)(=O)c2ccc(NC(=O)c3ccc4c(c3)C(=O)N(c3cc(-c5nc6ccccc6o5)cc(N5C(=O)c6ccc(*)cc6C5=O)c3)C4=O)cc2)cc1 (repeat unit)
7 | 176.00 °C | *c1cccc(Oc2cccc(Oc3cccc(Oc4cccc(Oc5cccc(N6C(=O)c7ccc(Oc8ccc9c(c8)C(=O)N(*)C9=O)cc7C6=O)c5)c4C#N)c3)c2C#N)c1 (repeat unit)
8 | 247.00 °C | *C(=O)c1ccc2c(c1)C(=O)N(c1ccc(NC(=O)c3cccc(C(=O)Nc4ccc(N5C(=O)c6ccc(*)cc6C5=O)cc4)c3)cc1)C2=O (repeat unit)
9 | 230.00 °C | *Oc1ccc(/C=N/c2ccc(/N=C/c3ccc(Oc4ccc(C(c5ccccc5)(c5ccccc5)c5ccc(*)cc5)cc4)cc3)cc2)cc1 (repeat unit)
10 | 259.00 °C | *c1ccc2c(c1)C(=O)N(c1cccc(C(=O)Nc3ccc(Oc4ccc(C(C)(C)c5ccc(Oc6ccc(NC(=O)c7cccc(N8C(=O)c9ccc(C(*)(C(F)(F)F)C(F)(F)F)cc9C8=O)c7)cc6)cc5)cc4)cc3)c1)C2=O (repeat unit)
11 | 266.00 °C | *Oc1ccc(Oc2ccc(C(=O)c3c(C(=O)c4ccc(*)cc4)c(-c4ccc(F)cc4)c(-c4ccc(F)cc4)c(-c4ccc(F)cc4)c3-c3ccc(F)cc3)cc2)cc1 (repeat unit)
12 | 244.00 °C | *c1ccc(Oc2ccc(C(c3ccc(Oc4ccc(N5C(=O)c6ccc(Oc7c(C)cc(C(C)(C)c8cc(C)c(Oc9ccc%10c(c9)C(=O)N(*)C%10=O)c(C)c8)cc7C)cc6C5=O)cc4)cc3)(C(F)(F)F)C(F)(F)F)cc2)cc1 (repeat unit)
13 | 251.00 °C | *Oc1ccc(Oc2ccc(S(=O)(=O)c3ccc(-c4ccc(S(=O)(=O)c5ccc(*)cc5)cc4)cc3)cc2)cc1 (repeat unit)
14 | 267.00 °C | *c1ccc(Oc2ccc(Oc3ccc(N4C(=O)C(c5ccccc5)=C(c5ccc(C6=C(c7ccccc7)C(=O)N(*)C6=O)cc5)C4=O)cc3)cc2)cc1 (repeat unit)
15 | 292.00 ± 28 °C | *c1ccc(Oc2ccc(Oc3ccc(-n4c(=O)c5cc6c(=O)n(*)c(=O)c6cc5c4=O)cc3)cc2)cc1 (repeat unit)
16 | 239.00 °C | *c1ccc(Cc2ccc(N3C(=O)CC(Nc4ccc(Cc5ccc(NC6CC(=O)N(*)C6=O)cc5)cc4)C3=O)cc2)cc1 (repeat unit)
17 | 376.00 °C | *C(=O)c1ccc2c(c1)C(=O)N(c1ccc(C3(c4ccc(N5C(=O)c6ccc(*)cc6C5=O)cc4)c4ccccc4-c4ccccc43)cc1)C2=O (repeat unit)
18 | 360.00 °C | *c1ccc(Oc2ccc(N3C(=O)c4c(c(-c5ccccc5)c(-c5ccc(Oc6ccc(-c7c(-c8ccccc8)c8c(c(-c9ccccc9)c7-c7ccccc7)C(=O)N(*)C8=O)cc6)cc5)c(-c5ccccc5)c4-c4ccccc4)C3=O)cc2)cc1 (repeat unit)
19 | 274.00 °C | *c1ccc(Oc2ccc(Oc3ccc(N4C(=O)c5ccc(-c6ccc7c(c6)C(=O)N(*)C7=O)cc5C4=O)cc3)c(C(C)(C)C)c2)cc1 (repeat unit)
20 | 184.00 °C | *c1ccc(Oc2cccc(Oc3ccc(N4C(=O)c5ccc(Oc6ccc(Oc7ccc(Oc8ccc9c(c8)C(=O)N(*)C9=O)cc7)cc6)cc5C4=O)cc3)c2)cc1 (repeat unit)

Second part, the molecule before the results:

Row | SMILES | glass transition temperature
21 | *CC1CCCC(CN2C(=O)c3ccc(-c4ccc5c(c4)C(=O)N(*)C5=O)cc3C2=O)C1 (repeat unit) | 234.00 °C
22 | *CC(*)c1ccc(COCCC)cc1 (repeat unit) [Poly(p-n-propoxymethyl styrene) ] | 22 ± 1.2 °C
23 | *CCOCCOc1cccc(NC(=O)c2cccc(C(=O)Nc3cccc(O*)c3)c2)c1 (repeat unit) | 128.50 °C
24 | *CC(*)C(=O)OCC(F)(F)C(F)(F)C(F)(F)C(F)(F)C(F)(F)F (repeat unit) | -39.00 °C
25 | *C(C(=O)OC)C(*)C(=O)OC(C)(C)C (repeat unit) | 84.00 °C
26 | *O[Si](C)(C)C#C[Si](C)(C)C#C[Si](C)(C)C#C[Si](C)(C)C#C[Si](C)(C)C#C[Si](*)(C)C (repeat unit) | -16.10 °C
27 | *CCCN1C(=O)C2C3C=CC(C4C(=O)N(*)C(=O)C34)C2C1=O (repeat unit) | 210.00 °C
28 | *N(C)[Si](C)(C=C)N(C)[Si](*)(C)C (repeat unit) | -42.00 °C
29 | *CC(COCCOCCOC)O* (repeat unit) | -57.00 °C
30 | *Oc1ccc(Oc2ccc(OC(=O)c3cccc(C(*)=O)c3)cc2)cc1 (repeat unit) | 164.50 °C
31 | */C=C/C(C(=O)OCc1ccccc1)C(*)C(=O)OCc1ccccc1 (repeat unit) | 21.00 °C
32 | *CC(CS(=O)(=O)CC)O* (repeat unit) | 57.00 °C
33 | *CCCCCCOc1ccc(/C=C2\CCC/C(=C\c3ccc(O*)cc3)C2=O)cc1 (repeat unit) | 116.00 °C
34 | *CCC[Si](*)(c1cccc2ccccc12)C1CCCCC1 (repeat unit) | 47.50 °C
35 | *CC(*)(C)C(=O)OCCCC (repeat unit) [poly(butyl methacrylate)] | 22.42 ± 6.3 °C
36 | *Oc1ccc(OC(=O)c2ccc(C(*)=O)cc2Sc2ccc(C)cc2)cc1 (repeat unit) | 134.00 °C
37 | *CCCCCCCCCCCOc1ccc(CCc2ccc(O*)cc2C)cc1 (repeat unit) | 3.90 °C
38 | *CC(*)c1ccc(B(Oc2ccc(Cl)c3cccnc23)c2ccc(C(C)(C)C)cc2)cc1 (repeat unit) | 238.00 °C
39 | *CC(*)(C)C(=O)OCCCCCCOc1ccc(OC(=O)c2ccc(OCCCCCCCC)cc2)cc1 (repeat unit) | -1.00 °C
40 | *c1ccc2c(c1)C(=O)N(c1cccc(C(F)(F)C(F)(F)C(F)(F)c3cccc(N4C(=O)c5ccc(C(F)(F)C(F)(F)C(F)(F)C(*)(F)F)cc5C4=O)c3)c1)C2=O (repeat unit) | 159.00 °C
41 | *Oc1c(Br)cc(C(c2cc(Br)c(OC(*)=O)c(Br)c2)(C(F)(F)F)C(F)(F)F)cc1Br (repeat unit) | 206.00 °C
42 | *c1ccc2c(c1)Sc1cc(-c3ccc(-c4ccc(*)s4)s3)ccc1N2CCCCCCCCCCCC (repeat unit) | 150.00 °C
43 | *CC(O)COc1ccc(C(C)(c2ccccc2)c2ccc(O*)cc2)cc1 (repeat unit) | 115.00 °C

Row | SMILES | glass transition temperature
44 | */C=C/C(C*)COCC(=O)OCCCCCCCCOc1ccc(/C=C/c2ccc([N+](=O)[O-])cc2)cc1 (repeat unit) | 23.00 °C
45 | *CC(CCCCCCCCCC)O* (repeat unit) | -41.00 °C
46 | *CC(*)CO (repeat unit) | 36.00 °C
47 | *c1cccc(-n2c(=O)c3cc4c(=O)n(*)c(=O)c4cc3c2=O)n1 (repeat unit) | 183.50 °C
48 | *CCN(*)C(=O)c1ccc(F)c(F)c1F (repeat unit) | 102.00 °C
49 | *C1C(=O)N(C(C)(C)C)C(=O)C1* (repeat unit) | 195.00 °C
50 | *CC(=O)Nc1ccc(Cc2ccc(NC(=O)COc3ccc4ccccc4c3Sc3c(O*)ccc4ccccc34)cc2)cc1 (repeat unit) | 241.00 °C
51 | *CCC1CC(*)C2C3CC(CC)C(C3)C12 (repeat unit) | 138.00 °C
52 | *c1cccc(S(=O)(=O)NCCCNS(*)(=O)=O)c1 (repeat unit) | 92.00 °C
53 | *CCCCCCCCN(C)c1ccc(C(=O)c2ccc(N(*)C)cc2)cc1 (repeat unit) | 50.00 °C
54 | *CC(*)OC(=O)C1(C)CCCCC1 (repeat unit) | 86.00 °C
55 | *Cc1cccc(CNC(=O)/C=C(\C)C(=O)N*)c1 (repeat unit) | 135.00 °C
56 | *Oc1c(-c2ccccc2)cc(Cc2cc(-c3ccccc3)c(OC(=O)CCCCCC(*)=O)c(-c3ccccc3)c2)cc1-c1ccccc1 (repeat unit) | 111.00 °C
57 | *c1ccc2c(c1)C(=O)N(c1ccc(S(=O)(=O)c3ccc(N4C(=O)c5ccc(C(F)(F)C(F)(F)C(*)(F)F)cc5C4=O)cc3)cc1)C2=O (repeat unit) | 259.00 °C
58 | *CCCC(C)O[Si](C)(C)O* (repeat unit) | -81.00 °C
59 | *OC1C(COCO)OC(*)C(O)C1O (repeat unit) | 208.00 °C
60 | *CC(OCC(C)C)C1(C)C(=O)OC(=O)C1(*)C (repeat unit) | 219.00 °C
61 | */C(C#N)=C/c1cc(OCCCCCCCC)c(/C=C(\C#N)c2cc(OCCCCCCCC)c(*)cc2OC)cc1OC (repeat unit) | 174.00 °C
62 | *CC(*)(C)C(=O)OCCN(CCCC)c1ccc(/N=N/c2ccc(S(=O)(=O)Nc3nccs3)cc2)cc1 (repeat unit) | 53.00 °C
63 | *C1C(=O)N(C(C)CC)C(=O)C1* (repeat unit) | 205.00 °C
64 | */C=C/CCCCCCCCCC(CCCCCCCCC*)COCCOCCOCCOCCOCCCCCC (repeat unit) | -76.00 °C
65 | *CC(*)(C)C(=O)Oc1ccc(/N=N/c2ccc(C#N)cc2)cc1 (repeat unit) | 185.00 °C
